Results taken from patent publication US11191870B2, “Gel of sodium hyaluronate cross-linked by polyethylene glycol epoxy derivative for injection and preparation method thereof” (JENKEM TECHNOLOGY CO., LTD. (BEIJING), priority 2016, dated 2021).
pIC50: −log10 of the molar value.

Columns and labels:
cells L929 [1] = assay: Median inhibitory concentration (IC50) of crosslinker compounds in cells L929; format: cell-based; conditions: Mus musculus, L929, read-out: IC50 (median inhibitory concentration)
Protocol: A cytotoxicity experiment is achieved through detecting the propagation rate of cells referring to standards for biological evaluation-in vitro cell toxicity test of medical instruments. In the experiment, an extraction method is adopted, a cell toxicity test is performed by adopting cells L929, a relative growth rate (RCR) of the cells is calculated through assaying the absorbance value by using an enzyme-linked immunoassay instrument, and the higher the RCR, the better the biocompatibility and the lower the toxicity.

cells L929 [2] = assay: Cytotoxicity experiment, extraction method, relative growth rate of cells; conditions: absorbance, higher RCR = lower toxicity, crosslinker compounds

| SMILES | pIC50 (cells L929 [1]) | RCR (relative growth rate of the cells), polyglycol diglycidyl ether crosslinkers (cells L929 [2]) [%] |
| --- | --- | --- |
| C(COCCOCC1CO1)OCCOCCOCC1CO1 (stereo not drawn) [Ia, tetraethylene glycol diglycidyl ether] | 3.90 | 62 |
| C(COCCOCCOCCOCCOCCOCC1CO1)OCCOCCOCCOCCOCCOCCOCC1CO1 (stereo not drawn) [Ib, dodecaethylene glycol diglycidyl ether] | 2.64 | 89 |
| C(COCCOCCOCCOCCOCCOCCOCCOCCOCCOCCOCCOCC1CO1)OCCOCCOCCOCCOCCOCCOCCOCCOCCOCCOCCOCCOCC1CO1 (stereo not drawn) [Ic, tetracosaethylene glycol diglycidyl ether] | 2.73 | 89 |
